Laboratory results published in the NIST ThermoML archive (doi:10.1016/j.jct.2018.09.036).

Assay: mn = molality of the nth substance listed, in mol/kg
Conditions: 298.15 K, 99.7 kPa, Liquid; for viscosity: Falling or rolling sphere viscometry; for mass density: Vibrating tube method

O [water] + CCn1cc[n+](C)c1.[Br-]
Conditions | viscosity [mPa·s]
m2 = 0 | 0.89

CCCCCCn1cc[n+](C)c1.[Br-] [3-hexyl-1-methyl-1H-imidazolium bromide] + O
Conditions | mass density [kg/m3] | viscosity [mPa·s]
m1 = 0.15 | 1003.87 | 0.947
m1 = 0.3 | 1010.37 | 1.018
m1 = 0.45 | 1016.58 | 1.093
m1 = 0.6 | 1022.49 | 1.169
m1 = 0.7 | 1026.26 | 1.221
m1 = 0.8 | 1029.91 | 1.273

O [water] + CCCCCCn1cc[n+](C)c1.[Br-]
Conditions | viscosity [mPa·s]
m2 = 0 | 0.89

CCCCn1cc[n+](C)c1.[Br-] [1-butyl-3-methylimidazolium bromide] + O
Conditions | mass density [kg/m3] | viscosity [mPa·s]
m1 = 0.15 | 1004.39 | 0.922
m1 = 0.3 | 1011.43 | 0.974
m1 = 0.45 | 1018.2 | 1.028
m1 = 0.6 | 1024.73 | 1.084
m1 = 0.7 | 1028.96 | 1.121
m1 = 0.8 | 1033.08 | 1.164

NCC(=O)O [2-aminoacetic acid] + O
Conditions | mass density [kg/m3] | viscosity [mPa·s]
m1 = 0.1 | 1000.22 | 0.902
m1 = 0.15 | 1001.78 | 0.908
m1 = 0.2 | 1003.34 | 0.914
m1 = 0.25 | 1004.88 | 0.92
m1 = 0.3 | 1006.42 | 0.927
m1 = 0.35 | 1007.94 | 0.934

O [water] + CCCCn1cc[n+](C)c1.[Br-]
Conditions | viscosity [mPa·s]
m2 = 0 | 0.89

O [water] + NCC(=O)O
Conditions | viscosity [mPa·s]
m2 = 0 | 0.89

CCn1cc[n+](C)c1.[Br-] [1-ethyl-3-methylimidazolium bromide] + O
Conditions | mass density [kg/m3] | viscosity [mPa·s]
m1 = 0.15 | 1004.96 | 0.899
m1 = 0.3 | 1012.56 | 0.93
m1 = 0.45 | 1019.92 | 0.961
m1 = 0.6 | 1027.01 | 0.992
m1 = 0.7 | 1031.63 | 1.013
m1 = 0.8 | 1036.11 | 1.036
